From US20100204149A1, “USE OF OCTREOTIDE AS A THERAPEUTIC AGENT” (priority 2007, published 2010)

Legend:
HCMV strain AD169 = test: HCMV plaque reduction assay in MRC-5 cells; type: cell-based; conditions: peptide 10 micrograms per ml, 7-10 days
Source text: Ganciclovir was used as positive control.

MRSA = test: Methicillin Resistant Staphylococcus Aureus (MRSA) assay; type: cell-based; conditions: peptide 10 micrograms per ml, read visually
Experimental: The antibacterial assay was conducted using clear, U-bottom 96-well microtiter plates. Cation-adjusted Mueller-Hinton Broth (MHB) was used for testing MRSA. The peptide of the invention (0.1 ml of each—10 micrograms per ml—) was dispensed into wells in duplicate. Then the wells were inoculated with 5×10^5 CFU/mL MRSA in 0.1 ml volume. For control purposes, each plate included 4 wells containing media without bacterial inoculum and 4 wells containing medium with inoculum but without peptide. The plates were incubated for 12 h at 37° C., and read visually 18-24 hours post-incubation. Growth control of MRSA was examined first to determine adequacy of media preparations and growth conditions. Acceptable growth is defined as ≧2 mm wide button of cells at the bottom of each sample well, or obvious turbidity in the culture supernatant. Test wells were examined and scored as positive/negative for activity. A positive score for activity is based on complete inhibition of macroscopic growth of the test MRSA.

Human A549 cells = test: Propidium iodide cell cycle assay; type: cell-based; conditions: peptide 10 micrograms per ml, 24 hours
Source text: Human A549 cells (carcinomic human alveolar basal epithelial cells) were utilized in the experiments employing the Propidium iodide cell cycle assay. The eukaryotic cell cycle is a series of events that take place in a cell leading to its replication. The regulation of the cell cycle involves steps crucial to the cell, including detecting and repairing genetic damage, and provision of various checks to prevent uncontrolled cell division. The molecular events that control the cell cycle are ordered and directional; that is, each process occurs in a sequential fashion. The cell cycle consists of four distinct phases: G1 phase, S phase, G2 phase (collectively known as interphase) and M phase. M phase is itself composed of two tightly coupled processes: mitosis, in which the cell's chromosomes are divided between the two daughter cells, and cytokinesis, in which the cell's cytoplasm divides forming distinct cells. Activation of each phase is dependent on the proper progression and completion of the previous one. Cells that have temporarily or reversibly stopped dividing are said to have entered a state of quiescence called Go phase. The relatively brief M phase consists of nuclear division and cytoplasmic division. The first phase within interphase, from the end of the previous M phase till the beginning of DNA synthesis is called G1 (G indicating gap or growth). During this phase the biosynthetic activities of the cell resume at a high rate. This phase is marked by synthesis of various enzymes that are required in S phase, mainly those needed for DNA replication. The ensuing S phase starts when DNA synthesis commences; when it is complete, all of the chromosomes have been replicated. The cell then enters the G2 phase, which lasts until the cell enters mitosis. Significant protein synthesis occurs during this phase, mainly involving the production of microtubules, which are required during the process of mitosis. […]
Propidium iodide is an intercalating agent and a fluorescent molecule that can be used to stain DNA. […] After incubation for 40 min at 37° C., cells were analyzed in the FACS.

[1] = test system: spleen cells of Ovalbumin immunized Balb/c mice; test: Th1/Th2 cytokine profiling assay; type: cell-based, mouse; conditions: peptide 10 micrograms per ml; Ovalbumin restimulation; 72 hours
Source text: The Balb/c mice (originated in 1923, it is a popular strain and is used in many different research disciplines. Also classified as an inbred from the production of 20 or more successive brother-sister matings, the Balb/c mouse is albino and small in size) were immunized on Days 1, 15, and 29 with Ovalbumin (Ovalbumin is the main protein found in egg white, commonly used to stimulate an immunological reaction in test animals) in PBS (5 micrograms/injection). On day 50, spleens of the mice were harvested (3 weeks after last boost with Ovalbumin). Cells were cultured (2×10^5/well in triplicate) and incubated with culture medium or test peptide—10 micrograms per ml—for 30 min. Thereafter, additional Ovalbumin was added to the cells at 10 micrograms/ml for in vitro restimulation of the cells. 72 hours later, cell supernatants were harvested and assayed using the Becton Dickinson Mouse Th1/Th2 Cytokine CBA Kit. This kit can be used to measure Interleukin-2 (IL-2), Interleukin-4 (IL-4), Interleukin-5 (IL-5), Interferon-γ (IFN-γ), and Tumor Necrosis Factor-α (TNF-α) protein levels in a single sample. The kit performance has been optimized for analysis of physiologically relevant concentrations ([…] levels) of specific cytokine proteins in tissue culture supernatants and serum samples.

[2] = test system: macrophages from human PBMC; test: TNF alpha production assay in LPS-stimulated macrophages; type: cell-based; conditions: TNF alpha ELISA; peptide 10 micrograms per ml; lipopolysaccharide 200 ng/ml; overnight
Experimental: The macrophages were prepared by adherence of PBMC to the plastic wells of the plates. After 8 days in culture in the presence of recombinant human macrophage-colony stimulating factor at 2 ng/ml, differentiated macrophages were preincubated with test peptide—10 micrograms per ml—for 30 min, followed by in-well stimulation by the addition of lipopolysaccharide at a final concentration of 200 ng/ml. Not stimulated macrophages served as negative background control.
After overnight incubation, supernatants from the control and LPS-stimulated cultures were harvested and assayed for TNF alpha production employing a TNF alpha specific ELISA.

[3] = test system: Human Peripheral Blood Mononuclear Cells (PBMC); conditions: T cell proliferation; peptide 10 micrograms per ml; 3 days
Experimental: Human Peripheral Blood Mononuclear Cells (PBMC) were obtained from normal human donors. The T cell proliferation was induced by stimulation of the cells with the T cell mitogen phytohemagglutinin (PHA), either in the absence (positive proliferation control), or in the presence of test peptide—10 micrograms per ml—to examine their effects on the T cell proliferating response. 10^5/well PBMC were plated in 96-well microtiter plates and assayed in duplicate with the peptide. Cell cultures were incubated at 37° C. for 3 days in a 5% CO2 incubator and were thereafter pulsed with 1 microCi/well ^3H-thymidine for additional 12 hours of culture. At the end of incubation time, the plates were harvested and the cells counted by liquid scintillation for the incorporation of ^3H-thymidine as a measure of T cell proliferation.

HIV-1IIIB = test: HIV-1 antiviral assay (CPE reduction) in CEM-SS cells; conditions: peptide 10 micrograms per ml; 6 days post-infection; MTS

C[C@@H](O)[C@@H]1NC(=O)[C@H](CCCCN)NC(=O)[C@@H](Cc2c[nH]c3ccccc23)NC(=O)[C@H](Cc2ccccc2)NC(=O)[C@@H](NC(=O)[C@H](N)Cc2ccccc2)CSSC[C@@H](C(=O)N[C@H](CO)[C@@H](C)O)NC1=O [Octreotide, H-D-Phe-Cys-Phe-D-Trp-Lys-Thr-Cys-L-threoninol]
% plaque reduction (HCMV strain AD169): 0.0%
% inhibition (MRSA): 0.0%
Cell cycle analysis G0/G1 (Human A549 cells): 59.1
Cell cycle analysis G2/M (Human A549 cells): 9.2
Cell cycle analysis S (Human A549 cells): 31.8
IFNγ spleen cells; TH1 response (% of control) [1]: 56.0 % of control
IL-2 spleen cells (% of control) [1]: 159.5 % of control
IL-4 spleen cells; TH2 response (% of control) [1]: 114.4 % of control
IL-5 spleen cells; TH2 response (% of control) [1]: 96.1 % of control
TNF-a spleen cells; TH1 response (% of control) [1]: 113.0 % of control
% of LPS induction [2]: 105.8%
% of PHA induced control [3]: 100.0%
% CPE reduction in HIV-1 infected CEM-SS cells (HIV-1IIIB): 0.0%
